The results in this text go back to PubChem BioAssay (NCI).

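Assay format: 96-well plates, 48-hour exposure. The concentration for 50% growth inhibition is given as GI50. The concentration for full growth arrest is given as TGI.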 A value given as a limit tells only on which side of the number the result lay.

Holding throughout (experiment): NCI tumour cell line growth inhibition, 48 h
For assay [1], the system named is LOX IMVI melanoma.
Assay [2] relates to SK-OV-3 ovarian.
Assay [3] relates to OVCAR-8 ovarian.
Assay [4] deals with SN12C renal.
The subject of assay [5] is KM12 colon.
For assay [6], the system named is SK-MEL-2 melanoma.
The subject of assay [7] is NCI-H522 lung.
For assay [8], the system named is MOLT-4 leukemia.
Assay [9] relates to NCI-H23 lung.
Assay [10] relates to SNB-75 CNS.

On to `COc1ccc2c(c1)/C(=C/c1cc(OC)c(OC)c(OC)c1)C(=O)N2`, for which the GI50 in assay [1] was 0.443 µM; in assay [2] it was 0.26 µM; in [3], 1.28 µM; in [4], 1.18 µM; in [5], 0.102 µM; in assay [6] it was 1.18 µM. In addition, the GI50 is 0.25 µM in assay [7], 0.216 µM in assay [8], 0.613 µM in [9] and 0.483 µM in [10]. Moreover, the TGI was more than 100 µM in assay [1]; 5.23 µM in assay [2]; more than 100 µM in assay [3]; more than 100 µM in [4]; more than 39.9 µM in assay [5]; more than 100 µM in assay [8]. For the same compound, the TGI was more than 63.2 µM in assay [9] and 2.05 µM in assay [10].
With `O=C1OCC2=C1C(c1ccccc1)c1cc3c(cc1N2CCO)OCO3` (stereo unspecified), the GI50 is 7 µM in assay [1]; 8.28 µM in assay [2]; 12.1 µM in assay [3]; 20.2 µM in assay [4]; 2.37 µM in assay [5]; 2.72 µM in assay [6]. Further, the GI50 was 1.09 µM in assay [7], more than 50 µM in [8], 7.88 µM in assay [9] and 2.06 µM in [10]. Further, the TGI in assay [1], in assay [2], in [3], in assay [4], in assay [5] and in [6] was more than 50 µM throughout. The TGI in assay [7], in assay [8], in [9] and in [10] was more than 50 µM each time.
Take `COc1ccc(C(=O)c2ccc([As]=O)cc2)cc1` (stereo unspecified): the GI50 in [1] was 0.0237 µM; in assay [2] it was 0.181 µM; in assay [3], 0.0617 µM; in assay [4], 0.0418 µM; in assay [5], 0.0801 µM; in assay [6] it was 0.173 µM. Further, the GI50 in assay [7] was 0.0902 µM; in [8], 0.0389 µM; in [9], 0.108 µM; in assay [10] it was 0.126 µM. The TGI is 0.075 µM in [1]; 0.346 µM in assay [2]; 0.203 µM in [3]; 0.199 µM in [4]; 0.219 µM in assay [5]; 0.373 µM in assay [6]. For the same compound, the TGI was 0.254 µM in assay [7], 0.265 µM in assay [8], 0.322 µM in [9] and 0.417 µM in [10].
Regarding `CC(C)(C)C(=O)[CH-]C(=O)C(C)(C)C.CC(C)(C)C(=O)[CH-]C(=O)C(C)(C)C.CN(C)c1ccc([O-])cc1.CN(C)c1ccc([O-])cc1.[Ti+4]`, the GI50 in [1] was more than 100 µM; in assay [2] it was more than 100 µM; in assay [3], more than 100 µM; in assay [4], more than 100 µM; in assay [5], 64.8 µM; in [6] it was more than 100 µM. Also, the GI50 in [7] is more than 100 µM; in assay [8], more than 100 µM; in assay [9] it was more than 100 µM; in assay [10], 26.1 µM. For the same compound, the TGI in [1], in assay [2], in assay [3], in [4], in assay [5] and in assay [6] was more than 100 µM each time. The TGI in [7], in assay [8], in [9] and in assay [10] was more than 100 µM each time.
As to `O=C(Nc1ccc(Cl)c(Cl)c1)NS(=O)(=O)c1cnccc1Oc1ccc(F)cc1`, the GI50 in [1] was 3.24 µM; in assay [2], 3.87 µM; in [3] it was 4.82 µM; in assay [4] it was 3.38 µM; in [5], 3.75 µM; in [6], 4.71 µM. The GI50 is 2.8 µM in assay [7], 2.68 µM in assay [8], 3.37 µM in [9] and 3.85 µM in [10]. Further, the TGI was 53.1 µM in assay [1]; 18.2 µM in [2]; more than 100 µM in assay [3]; 15.4 µM in [4]; 16.7 µM in [5]; more than 100 µM in [6]. Besides, the TGI was 10.4 µM in [7], 8.58 µM in [8], 24.5 µM in assay [9] and more than 100 µM in assay [10].
As for `O=[N+]([O-])c1ccc(Sc2c3ccccc3nc3cc(Cl)ccc23)cc1`, the GI50 in [1], in assay [2], in assay [3], in assay [4], in assay [5] and in assay [6] was more than 100 µM each time. The GI50 in [7] and in [9] was more than 100 µM each time. The TGI in [1], in assay [2], in assay [3], in [4], in assay [5] and in [6] was more than 100 µM throughout. Besides, the TGI in assay [7], in assay [8], in [9] and in assay [10] was more than 100 µM in each case.
In the case of `CN(C)C(=S)/N=c1\ssc(=S)n1Cc1ccncc1`, the TGI in assay [1] is 39.9 µM; in assay [2], 72.2 µM; in [3] it was 68.9 µM; in [4], more than 100 µM; in assay [5], 16.8 µM; in [6], 52.2 µM. Besides, the TGI in [7] is 2.99 µM; in assay [8], 49.3 µM; in assay [9], 60.7 µM; in assay [10] it was 58.5 µM.
`COc1ccc(OC)c(Cn2cc3c(c2-c2ccccc2)CCc2cnoc2-3)c1`: the GI50 in [1] was 4.92 µM; in assay [2], 7.48 µM; in assay [3], 19.2 µM; in assay [4] it was 23.8 µM; in assay [5] it was 3.61 µM; in [6], 3.71 µM. Further, the GI50 in [7] is 1.74 µM; in assay [8], 3.95 µM; in assay [9], 7.99 µM; in [10] it was 2.89 µM. Further, the TGI in assay [1] was more than 100 µM; in assay [2], more than 100 µM; in [3] it was more than 100 µM; in assay [4] it was more than 100 µM; in assay [5] it was more than 100 µM; in [6], 59.2 µM. Besides, the TGI is 6.25 µM in assay [7], more than 100 µM in assay [8], more than 100 µM in [9] and 9.9 µM in [10].
